# Ends that are not written are not given here. * marks the point of attachment. Myristoyl = CCCCCCCCCCCCCC(=O)*
# Assay: Permeabilization of DPPC liposomes containing glucose oxidase by phosphorylated dermatoxin (absorbance at 538 nm)
# Type: biochemical
# Procedure: DPPC liposomes containing 5 mg/mL glucose oxidase were prepared as described in Example 2. Glucose oxidase activity was measured in a coupled enzyme reaction with horseradish peroxidase as described in Example 2. The various solutions were quickly added to each of the wells of a microplate using a multichannel pipette and the reactions were started (at T=0 hours) with the addition to the wells of a solution containing glucose and 4-AAP.
# The ability of the phosphorylated dermatoxin to open liposomes in the presence of phosphatase was tested by preparing a developing solution as described in Example 2. One hundred-fifty microliters of the developing solution was placed in each well of a 96-well microplate. To each column in the plate was added 20 μL of TES buffer containing one of the following concentrations of unpurified dermatoxin: 3.3 mg/mL, 3.3×10^−1 mg/mL, 3.3×10^−2 mg/mL, 3.3×10^−3 mg/mL, 3.3×10^−4 mg/mL, 3.3×10^−5 mg/mL, 3.3×10^−6 mg/mL, or 3.3×10^−7 mg/mL. Negative control wells contained TES buffer with no dermatoxin. Positive control wells buffer contained TES buffer with Triton X-100. Ten-microliter aliquots of the following concentrations of DPPC liposomes (containing 5 mg/mL glucose oxidase) were added to wells in duplicate rows: 0.1 mg lipid/mL, 0.02 mg lipid/mL, 0.004 mg lipid/mL, or plain buffer. To one of the duplicate rows was added 20 μL of 2.5 mg/mL alkaline phosphatase in TES. The other duplicate row received 20 μL of TES buffer. Thus the final dermatoxin concentration in the well varied from […], and the final lipid concentration in the well ranged from 0.005 mg lipid/mL to 2.0×10^−4 mg lipid/mL.
# The absorbance was recorded at 538 nm on a SpectraMax M5 plate reader (Molecular Devices, Sunnyvale, Calif.) after two hours incubation at room temperature, and also after overnight incubation (approximately 18 hours). Since the absorbance of several wells was saturated, the overnight samples were diluted 1:10 with 50 mmol TES and the absorbance of the diluted samples was measured.
sequence,measurement,setting,value
"SLGSFLKGVGTTLASVGKVVSDQFGKLLQAGQ (Myristoyl-SLGSFLKGVGTTLASVGKVVSDQFGKLLQAGQ; also: phosphorylated) [phosphorylated dermatoxin, fully phosphorylated dermatoxin, unpurified crude preparation]",Absorbance at 538 nm (cytolytic peptide activity),"18 hrs (d), 1:10-diluted sample, lipid conc. 0.004, dermatoxin mass 3.3 × 10^−9 mg, without phosphatase",0.054 absorbance units
same,Absorbance at 538 nm (cytolytic peptide activity),"18 hrs (d), 1:10-diluted sample, lipid conc. 0.02, dermatoxin mass 3.3 × 10^−5 mg, with phosphatase",0.262 absorbance units
same,Absorbance at 538 nm (cytolytic peptide activity),"18 hrs (d), 1:10-diluted sample, lipid conc. 0.02, dermatoxin mass 3.3 × 10^−5 mg, without phosphatase",0.247 absorbance units
same,Absorbance at 538 nm (cytolytic peptide activity),"18 hrs (d), 1:10-diluted sample, lipid conc. 0.02, dermatoxin mass 3.3 × 10^−6 mg, with phosphatase",0.231 absorbance units
same,Absorbance at 538 nm (cytolytic peptide activity),"18 hrs (d), 1:10-diluted sample, lipid conc. 0.02, dermatoxin mass 3.3 × 10^−6 mg, without phosphatase",0.145 absorbance units
same,Absorbance at 538 nm (cytolytic peptide activity),"18 hrs (d), 1:10-diluted sample, lipid conc. 0.02, dermatoxin mass 3.3 × 10^−7 mg, with phosphatase",0.084 absorbance units
same,Absorbance at 538 nm (cytolytic peptide activity),"18 hrs (d), 1:10-diluted sample, lipid conc. 0.02, dermatoxin mass 3.3 × 10^−7 mg, without phosphatase",0.072 absorbance units
same,Absorbance at 538 nm (cytolytic peptide activity),"18 hrs (d), 1:10-diluted sample, lipid conc. 0.02, dermatoxin mass 3.3 × 10^−8 mg, with phosphatase",0.075 absorbance units
same,Absorbance at 538 nm (cytolytic peptide activity),"18 hrs (d), 1:10-diluted sample, lipid conc. 0.02, dermatoxin mass 3.3 × 10^−8 mg, without phosphatase",0.054 absorbance units
same,Absorbance at 538 nm (cytolytic peptide activity),"18 hrs (d), 1:10-diluted sample, lipid conc. 0.02, dermatoxin mass 3.3 × 10^−9 mg, with phosphatase",0.072 absorbance units
same,Absorbance at 538 nm (cytolytic peptide activity),"18 hrs (d), 1:10-diluted sample, lipid conc. 0.02, dermatoxin mass 3.3 × 10^−9 mg, without phosphatase",0.054 absorbance units
same,Absorbance at 538 nm (cytolytic peptide activity),"18 hrs (d), 1:10-diluted sample, lipid conc. 0.1, dermatoxin mass 3.3 × 10^−5 mg, with phosphatase",1.045 absorbance units
same,Absorbance at 538 nm (cytolytic peptide activity),"18 hrs (d), 1:10-diluted sample, lipid conc. 0.1, dermatoxin mass 3.3 × 10^−5 mg, without phosphatase",0.846 absorbance units
same,Absorbance at 538 nm (cytolytic peptide activity),"18 hrs (d), 1:10-diluted sample, lipid conc. 0.1, dermatoxin mass 3.3 × 10^−6 mg, with phosphatase",0.785 absorbance units
same,Absorbance at 538 nm (cytolytic peptide activity),"18 hrs (d), 1:10-diluted sample, lipid conc. 0.1, dermatoxin mass 3.3 × 10^−6 mg, without phosphatase",0.413 absorbance units
same,Absorbance at 538 nm (cytolytic peptide activity),"18 hrs (d), 1:10-diluted sample, lipid conc. 0.1, dermatoxin mass 3.3 × 10^−7 mg, with phosphatase",0.095 absorbance units
same,Absorbance at 538 nm (cytolytic peptide activity),"18 hrs (d), 1:10-diluted sample, lipid conc. 0.1, dermatoxin mass 3.3 × 10^−7 mg, without phosphatase",0.145 absorbance units
same,Absorbance at 538 nm (cytolytic peptide activity),"18 hrs (d), 1:10-diluted sample, lipid conc. 0.1, dermatoxin mass 3.3 × 10^−8 mg, with phosphatase",0.076 absorbance units
same,Absorbance at 538 nm (cytolytic peptide activity),"18 hrs (d), 1:10-diluted sample, lipid conc. 0.1, dermatoxin mass 3.3 × 10^−8 mg, without phosphatase",0.060 absorbance units
same,Absorbance at 538 nm (cytolytic peptide activity),"18 hrs (d), 1:10-diluted sample, lipid conc. 0.1, dermatoxin mass 3.3 × 10^−9 mg, with phosphatase",0.075 absorbance units
same,Absorbance at 538 nm (cytolytic peptide activity),"18 hrs (d), 1:10-diluted sample, lipid conc. 0.1, dermatoxin mass 3.3 × 10^−9 mg, without phosphatase",0.058 absorbance units
same,Absorbance at 538 nm (cytolytic peptide activity),"18 hrs, lipid conc. 0, dermatoxin mass 3.3 × 10^−5 mg, with phosphatase",0.153 absorbance units
same,Absorbance at 538 nm (cytolytic peptide activity),"18 hrs, lipid conc. 0, dermatoxin mass 3.3 × 10^−5 mg, without phosphatase",0.147 absorbance units
same,Absorbance at 538 nm (cytolytic peptide activity),"18 hrs, lipid conc. 0, dermatoxin mass 3.3 × 10^−6 mg, with phosphatase",0.149 absorbance units
same,Absorbance at 538 nm (cytolytic peptide activity),"18 hrs, lipid conc. 0, dermatoxin mass 3.3 × 10^−6 mg, without phosphatase",0.139 absorbance units
same,Absorbance at 538 nm (cytolytic peptide activity),"18 hrs, lipid conc. 0, dermatoxin mass 3.3 × 10^−7 mg, with phosphatase",0.148 absorbance units
same,Absorbance at 538 nm (cytolytic peptide activity),"18 hrs, lipid conc. 0, dermatoxin mass 3.3 × 10^−7 mg, without phosphatase",0.132 absorbance units
same,Absorbance at 538 nm (cytolytic peptide activity),"18 hrs, lipid conc. 0, dermatoxin mass 3.3 × 10^−8 mg, with phosphatase",0.149 absorbance units
same,Absorbance at 538 nm (cytolytic peptide activity),"18 hrs, lipid conc. 0, dermatoxin mass 3.3 × 10^−8 mg, without phosphatase",0.131 absorbance units
same,Absorbance at 538 nm (cytolytic peptide activity),"18 hrs, lipid conc. 0, dermatoxin mass 3.3 × 10^−9 mg, with phosphatase",0.150 absorbance units
same,Absorbance at 538 nm (cytolytic peptide activity),"18 hrs, lipid conc. 0, dermatoxin mass 3.3 × 10^−9 mg, without phosphatase",0.133 absorbance units
same,Absorbance at 538 nm (cytolytic peptide activity),"18 hrs, lipid conc. 0.004, dermatoxin mass 3.3 × 10^−5 mg, with phosphatase",0.494 absorbance units
same,Absorbance at 538 nm (cytolytic peptide activity),"18 hrs, lipid conc. 0.004, dermatoxin mass 3.3 × 10^−5 mg, without phosphatase",0.499 absorbance units
same,Absorbance at 538 nm (cytolytic peptide activity),"18 hrs, lipid conc. 0.004, dermatoxin mass 3.3 × 10^−6 mg, with phosphatase",0.494 absorbance units
same,Absorbance at 538 nm (cytolytic peptide activity),"18 hrs, lipid conc. 0.004, dermatoxin mass 3.3 × 10^−6 mg, without phosphatase",0.410 absorbance units
same,Absorbance at 538 nm (cytolytic peptide activity),"18 hrs, lipid conc. 0.004, dermatoxin mass 3.3 × 10^−7 mg, with phosphatase",0.287 absorbance units
same,Absorbance at 538 nm (cytolytic peptide activity),"18 hrs, lipid conc. 0.004, dermatoxin mass 3.3 × 10^−7 mg, without phosphatase",0.169 absorbance units
same,Absorbance at 538 nm (cytolytic peptide activity),"18 hrs, lipid conc. 0.004, dermatoxin mass 3.3 × 10^−8 mg, with phosphatase",0.240 absorbance units
same,Absorbance at 538 nm (cytolytic peptide activity),"18 hrs, lipid conc. 0.004, dermatoxin mass 3.3 × 10^−8 mg, without phosphatase",0.141 absorbance units
same,Absorbance at 538 nm (cytolytic peptide activity),"18 hrs, lipid conc. 0.004, dermatoxin mass 3.3 × 10^−9 mg, with phosphatase",0.243 absorbance units
same,Absorbance at 538 nm (cytolytic peptide activity),"18 hrs, lipid conc. 0.004, dermatoxin mass 3.3 × 10^−9 mg, without phosphatase",0.139 absorbance units
same,Absorbance at 538 nm (cytolytic peptide activity),"18 hrs, lipid conc. 0.02, dermatoxin mass 3.3 × 10^−5 mg, with phosphatase",2.003 absorbance units
same,Absorbance at 538 nm (cytolytic peptide activity),"18 hrs, lipid conc. 0.02, dermatoxin mass 3.3 × 10^−5 mg, without phosphatase",1.833 absorbance units
same,Absorbance at 538 nm (cytolytic peptide activity),"18 hrs, lipid conc. 0.02, dermatoxin mass 3.3 × 10^−6 mg, with phosphatase",1.856 absorbance units
same,Absorbance at 538 nm (cytolytic peptide activity),"18 hrs, lipid conc. 0.02, dermatoxin mass 3.3 × 10^−6 mg, without phosphatase",1.013 absorbance units
same,Absorbance at 538 nm (cytolytic peptide activity),"18 hrs, lipid conc. 0.02, dermatoxin mass 3.3 × 10^−7 mg, with phosphatase",0.469 absorbance units
same,Absorbance at 538 nm (cytolytic peptide activity),"18 hrs, lipid conc. 0.02, dermatoxin mass 3.3 × 10^−7 mg, without phosphatase",0.315 absorbance units
same,Absorbance at 538 nm (cytolytic peptide activity),"18 hrs, lipid conc. 0.02, dermatoxin mass 3.3 × 10^−8 mg, with phosphatase",0.357 absorbance units
same,Absorbance at 538 nm (cytolytic peptide activity),"18 hrs, lipid conc. 0.02, dermatoxin mass 3.3 × 10^−8 mg, without phosphatase",0.149 absorbance units
same,Absorbance at 538 nm (cytolytic peptide activity),"18 hrs, lipid conc. 0.02, dermatoxin mass 3.3 × 10^−9 mg, with phosphatase",0.336 absorbance units
same,Absorbance at 538 nm (cytolytic peptide activity),"18 hrs, lipid conc. 0.02, dermatoxin mass 3.3 × 10^−9 mg, without phosphatase",0.143 absorbance units
same,Absorbance at 538 nm (cytolytic peptide activity),"18 hrs, lipid conc. 0.1, dermatoxin mass 3.3 × 10^−5 mg, without phosphatase",3.720 absorbance units
same,Absorbance at 538 nm (cytolytic peptide activity),"18 hrs, lipid conc. 0.1, dermatoxin mass 3.3 × 10^−6 mg, without phosphatase",3.294 absorbance units
same,Absorbance at 538 nm (cytolytic peptide activity),"18 hrs, lipid conc. 0.1, dermatoxin mass 3.3 × 10^−7 mg, with phosphatase",0.530 absorbance units
same,Absorbance at 538 nm (cytolytic peptide activity),"18 hrs, lipid conc. 0.1, dermatoxin mass 3.3 × 10^−7 mg, without phosphatase",0.974 absorbance units
same,Absorbance at 538 nm (cytolytic peptide activity),"18 hrs, lipid conc. 0.1, dermatoxin mass 3.3 × 10^−8 mg, with phosphatase",0.349 absorbance units
same,Absorbance at 538 nm (cytolytic peptide activity),"18 hrs, lipid conc. 0.1, dermatoxin mass 3.3 × 10^−8 mg, without phosphatase",0.200 absorbance units
same,Absorbance at 538 nm (cytolytic peptide activity),"18 hrs, lipid conc. 0.1, dermatoxin mass 3.3 × 10^−9 mg, with phosphatase",0.358 absorbance units
same,Absorbance at 538 nm (cytolytic peptide activity),"18 hrs, lipid conc. 0.1, dermatoxin mass 3.3 × 10^−9 mg, without phosphatase",0.177 absorbance units
same,Permeabilization of the liposomes in the presence versus absence of phosphatase,all wells except the highest concentration of the crude preparation,more permeabilization

# Source: patent publication US8936916B2, “Polypeptides for microbial detection” (3M Innovative Properties Company, priority 2008, dated 2015)
